Here are results for one compound from article PMC12000251, “Evaluation of the Anti-Inflammatory Effects of Novel Fatty Acid-Binding Protein 4 Inhibitors in Microglia” (Journal of Neuroimmune Pharmacology, 2025).

Assay [1] has as its system LPS-activated BV-2 cells. Kind of assay: Intracellular ROS (DCF-DA) in LPS-activated BV-2 cells. Format: cell-based, mouse. Here is the method: BV-2 cells were cultured in DMEM/F-12 media supplemented with 10% (v/v) FBS and 1% (v/v) penicillin/streptomycin, and kept at 37 °C in a humidified incubator ([…], 5% CO2) for all studies. Cells with 80% confluency were used for experiments. […] In some experiments (detailed in Results), BV-2 cells were exposed to MFP compounds for 2 h before a 24 h exposure to LPS and MFP compounds, and in some studies, in the presence of FABP4 siRNA using a 24 h treatment that we have previously employed (Low et al. [2021]). In brief, BV-2 cells were washed once 4 h post-seeding with blank DMEM/F-12 media. siRNA complexes (containing FABP4 siRNA, target sequence 5’-[…]-3’ or AllStar Negative Control siRNA, target sequence proprietary) were added dropwise onto the cells. siRNA complexes were prepared by mixing siRNA and HiPerfect transfection reagent together in FBS-free DMEM/F12 media and incubating for 15 min to allow the siRNA complexes to form. The cells were incubated with the siRNA complex for 5 min, after which, DMEM/F12 media containing FBS was added into each well to dilute the siRNA complexes to 5 nM.
Intracellular ROS in BV-2 cells, following treatment with MFP compounds and LPS, was detected using the widely-used membrane permeable probe, DCF-DA. Post treatment, BV-2 cells were rinsed once with warm HBSS prior to being incubated with 40 µM of DCF-DA for 30 min at 37°C, 5% CO2. The wells were then rinsed again with HBSS before being read on a Perkin-Elmer Enspire plate reader (λex: 488 nm, λem: 535 nm) as we have reported previously (Kagawa et al. [2023]).

In assay [2] the test system is LPS-activated BV-2 cells. Kind of assay: Extracellular nitrite (Griess assay) from LPS-activated BV-2 cells. Format: cell-based, mouse. As to conditions: 50 µM, 1 µg/mL LPS 24 h. Here is the method: BV-2 cells were cultured in DMEM/F-12 media supplemented with 10% (v/v) FBS and 1% (v/v) penicillin/streptomycin, and kept at 37 °C in a humidified incubator ([…], 5% CO2) for all studies. Cells with 80% confluency were used for experiments. At 24 h post-seeding, BV-2 cells were treated with either of the MFP compounds (at concentrations detailed below) or vehicle (0.1% (v/v) DMSO) and 1 µg/mL LPS for a period of 24 h. In some experiments (detailed in Results), BV-2 cells were exposed to MFP compounds for 2 h before a 24 h exposure to LPS and MFP compounds, and in some studies, in the presence of FABP4 siRNA using a 24 h treatment that we have previously employed (Low et al. [2021]). […]
For measurement of extracellular nitrite concentrations, the Griess assay was performed as per the manufacturer’s protocol (Molecular Probes, Eugene, OR) with minor changes. […] The absorbance of the media samples was measured on a Perkin-Elmer Enspire plate reader at 548 nm, with nitrite concentrations in media samples obtained by back calculating sample absorbance values back to a standard curve prepared through serial dilution of NaNO2 prepared in media.
In general terms: Griess reagent forms a coloured azo dye with nitrite.

Assay [3] deals with T1, Recombinantly-expressed human FABP4 (Homo sapiens, UniProt P15090).
T1 construct: made in house
Kind of assay: Isothermal titration calorimetry (ITC) binding affinity to FABP4. As to conditions: one-site binding model, read-out: KD (ITC titration of FABP4, Figure S1). Here is the method: A prior fragment screen identified a series of bi-aryl sulfonamides that bound to FABP4. Analogues of this chemical sulfonamide scaffold were then purchased, which led to the identification of the compounds used in this study (MFP-0011462, MFP-0012314, MFP-0012318, and MFP-0012328). Their predicted LogP and tPSA values were calculated in Vortex v2020.1.117658-s (Dotmatics, Boston, MA). The binding affinity of these four compounds was characterised by isothermal titration calorimetry (ITC). ITC was carried out using an iTC200 microcalorimeter (MicroCal, United Kingdom) with a coin shaped sample cell (201.4 μL) with stirring at 1000 rpm at 25°C. Titrations were performed in an ITC buffer (50 mM sodium phosphate, 50 mM NaCl, pH 7.4 with 2% DMSO). Compounds were diluted from concentrated stocks in ITC buffer and loaded into the titration syringe at a concentration of 1 mM, with a final DMSO concentration of 2% (v/v). Recombinantly-expressed human FABP4 was prepared as described previously (Lee et al. [2015a]) in an identical buffer at a protein concentration of 80 μM and placed in the sample cell. A thermal equilibration step at 25°C was followed by an initial 180 s delay step and subsequently an initial 0.2 μL injection. 16 serial injections of the 1 mM compound solution (2 μL each) were made at intervals of 220 s with continuous stirring of the solution in the sample cell. The iTC200 control software was used to operate and acquire raw data as power (microcalories/sec) vs time (min). The data were processed using the Origin 7.0 software (MicroCal) and the binding affinity (KD) was calculated by fitting the data to a one-site binding model.
A general note: In ITC the heat of successive injections is recorded.

T1 sequence (P15090 whole entry): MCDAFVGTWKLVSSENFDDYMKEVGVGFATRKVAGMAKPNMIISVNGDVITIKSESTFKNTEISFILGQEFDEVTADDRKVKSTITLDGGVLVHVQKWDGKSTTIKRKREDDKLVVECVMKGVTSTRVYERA

As to `O=C(O)c1cccc(NS(=O)(=O)c2ccc(Cl)c(Cl)c2)c1` [MFP-0012328], in the assay on LPS-activated BV-2 cells [1] (5 nM FABP4 siRNA, 10 µM MFP-0012328, or both, with 1 µg/mL LPS 24 h, range over the three treatments), the “reduction of ROS production vs LPS-treated BV-2 cells” value is 36.6–61.2%. In addition, the “further reduction of ROS levels in FABP4 siRNA treated cells” value with LPS-activated BV-2 cells [1] (10 µM plus 5 nM FABP4 siRNA, 1 µg/mL LPS 24 h) is on record as “not able to reduce ROS levels any further”. Also, in the assay on LPS-activated BV-2 cells [1] (BV-2 cells pre-treated with LPS for 4 h, then 10 µM compound), the “reduction of ROS production vs LPS-alone” value was found to be 27.8%. In the assay on LPS-activated BV-2 cells [2], the “attenuation of LPS-mediated release of nitrite” value turned out to be 51.3%. Moreover, the Kd in assay [3] stood at 316 nM.
